Laboratory results reported in patent US20210087593A1, “N-[…] ALKALOID COMPOUNDS” (Willow BioSciences Inc., priority 2017, published 2021).

Assays:
[1] = system: EsNMT; assay: N-alkylation substrate screen using EsNMT (LC-MS); type: biochemical, Ephedra sinica; set-up: key to N-alkylation of substrate alkaloid compounds, Enzyme EsNMT: −=no detectable quantities of product N-alkylated compound; Trace, +, ++, +++=increasing relative levels of product N-alkylated compound; Trace, +, ++, +++=increasing relative levels of product N-alkylated compound; Trace, +, ++, +++=increasing relative levels of product N-alkylated compound; Trace, +, ++, +++=increasing relative levels of product N-alkylated compound; settings: for N-alkylation of substrate alkaloid compounds, Enzyme EsNMT: 25 μg protein, 1 mM substrate, 1 mM SAM, 60 mM HEPES pH 8, 16 hours at 37° C., relative level of N-alkylated product by LC-MS; for N-alkylated alkaloid product detected after incubation with EsNMT (SEQ. ID NO: 2): incubated in accordance with Example 1, LC-MS
Method: The EsNMT coding sequence was amplified from Ephedra sinica cDNA using gene-specific primers containing restriction sites with Q5 HiFi DNA polymerase (NEB). Restriction digests and ligations (NEB) were carried out to generate a pQE plasmid (Qiagen) for heterologous expression of HIS6-tagged recombinant EsNMT. Protein overexpression was carried out at 18° C. in Escherichia coli SG13009 (Qiagen) grown in lysogeny broth (LB) to which 0.5 mM isopropyl β-D-1-thiogalactopyranoside (IPTG) was added.
(§1) Total soluble protein was extracted from each culture and the recombinant NMTs were purified using TALON cobalt affinity resin (Clontech) followed by desalting and concentration with Amicon Ultra-30 centrifugal filters (EMD Millipore). Protein concentration was determined using the Bradford method, and purity was assessed by SDS-PAGE followed by Coomassie staining.
(§2) Forty-four nitrogenous molecules were screened as potential substrates for EsNMT using a standardized assay (25 μg protein, 1 mM substrate, 1 mM SAM, 60 mM HEPES pH 8, 16 hours at 37° C.). In addition, a representative subset was screened as potential substrates for GfCNMT, GfTNMT and PsRNMT under identical conditions. For each substrate and enzyme combination, negative control assays were carried out using protein heated to 100° C. (boiled) for 20 minutes. Assays were quenched with 9 volumes of methanol, centrifuged to pellet insoluble debris and the supernatants were stored at −20° C. prior to analysis.
(§3) Assay supernatants were analyzed by liquid chromatography-mass spectrometry (LC-MS). LC-MS analysis was performed using a 1200 HPLC coupled with a 6410 triple-quadrupole MS (Agilent). Samples (2 μl) were injected onto a Luna […] Phenyl-Hexyl 100 Å HPLC column and analytes were eluted in a gradient of solvent A (0.1% Formic acid, 5% v/v methanol in water) and solvent B (0.1% Formic acid in methanol) at a flow rate of 300 μl per minute. The gradient began at 0% B, reached 35% B by 12 minutes, then increased to 85% B at 14 min and remained at that level until 18 minutes. Subsequently, the mixture returned to 0% B over a period of 3 minutes before a final 6 minute re-equilibration period. Analytes were applied to the mass analyzer using an electrospray ionization probe operating in positive mode with the following condition: capillary voltage, 4000V; fragmentor voltage, 100V, source temperature, 350° C.; nebulizer pressure, 50 PSI; gas flow 10 L/min. Ions were detected in full scan mode where quadrupoles 1 and 2 were set to RF only, whereas the third quadrupole scanned from 100-500 m/z over 525 milliseconds. Substrate acceptance by the enzymes was determined according to the formation of a peak with a 14-m/z increase in mass, corresponding to methylated substrate and a decrease in the substrate peak area, relative to the appropriate boiled control assay.
(§4) Each of the alkaloid substrates shown in Table 1 were incubated with the following N-alkyltransferases: GfCNMT (SEQ. ID NO: 3), gfTNMT (SEQ. ID NO: 4) and Ps RNMT ([…]) and EsNMT (SEQ. ID NO: 2), as described in Example 1. The presence of N-alkylated alkaloid product was detected as described in Examples 1-20. Legend: ND=Not Determined; −=no detectable quantities of product N-alkylated compound; and Trace, +, ++, +++=increasing relative levels of product N-alkylated compound.

[2] = system: GfCNMT; assay: N-alkylation substrate screen using GfCNMT (LC-MS); type: biochemical, Glaucium flavum; set-up: key: −=no detectable quantities of product N-alkylated compound; Trace, +, ++, +++=increasing relative levels of product N-alkylated compound; Trace, +, ++, +++=increasing relative levels of product N-alkylated compound; Trace, +, ++, +++=increasing relative levels of product N-alkylated compound; Trace, +, ++, +++=increasing relative levels of product N-alkylated compound; settings: 25 μg protein, 1 mM substrate, 1 mM SAM, 60 mM HEPES pH 8, 16 hours at 37° C.; relative level of N-alkylated product by LC-MS
Method: (§5) The GfCNMT, GfTNMT and PsRNMT coding sequences were amplified from Glaucium flavum (GfCNMT and GfTNMT) or Papaver somniferum (PsRNMT) cDNA using gene-specific primers containing attB recombination sites with Q5 HiFi DNA polymerase (NEB). Recombination reactions were carried out using BP and LR Clonase II (Thermo Scientific) to generate individual pDONR221 entry plasmids and, subsequently, individual pHGWA plasmids for heterologous expression of polyhistidine (HIS6)-tagged recombinant GfCNMT, GfTNMT and PsRNMT. Protein overexpression was carried out at 18° C. using E. coli ArcticExpress (Agilent) grown in Studier's autoinduction media.
as §1, §2, §3, §4

[3] = system: GfTNMT; assay: N-alkylation substrate screen using GfTNMT (LC-MS); type: biochemical, Glaucium flavum; set-up: key: −=no detectable quantities of product N-alkylated compound; Trace, +, ++, +++=increasing relative levels of product N-alkylated compound; Trace, +, ++, +++=increasing relative levels of product N-alkylated compound; Trace, +, ++, +++=increasing relative levels of product N-alkylated compound; Trace, +, ++, +++=increasing relative levels of product N-alkylated compound; settings: 25 μg protein, 1 mM substrate, 1 mM SAM, 60 mM HEPES pH 8, 16 hours at 37° C.; relative level of N-alkylated product by LC-MS
Method: as §5, §1, §2, §3, §4

[4] = system: PsRNMT; assay: N-alkylation substrate screen using PsRNMT (LC-MS); type: biochemical, Papaver somniferum; set-up: key: −=no detectable quantities of product N-alkylated compound; Trace, +, ++, +++=increasing relative levels of product N-alkylated compound; Trace, +, ++, +++=increasing relative levels of product N-alkylated compound; Trace, +, ++, +++=increasing relative levels of product N-alkylated compound; Trace, +, ++, +++=increasing relative levels of product N-alkylated compound; settings: 25 μg protein, 1 mM substrate, 1 mM SAM, 60 mM HEPES pH 8, 16 hours at 37° C.; relative level of N-alkylated product by LC-MS
Method: as §5, §1, §2, §3, §4

Row | SMILES | N-alkylation of substrate alkaloid compounds, Enzyme EsNMT [1] | N-alkylation of substrate alkaloid compounds, Enzyme GfCNMT [2] | N-alkylation of substrate alkaloid compounds, Enzyme GfTNMT [3] | N-alkylation of substrate alkaloid compounds, Enzyme PsRNMT [4] | N-alkylated alkaloid product detected after incubation with EsNMT (SEQ. ID NO: 2) [1]
1 | c1cc2c(c3c1C[C@H]1c4cc5c(cc4CCN1C3)OCO5)OCO2 [Stylopine, stylopine] | + | + | + | +++ | 
2 | COc1ccc2c(c1OC)C(=O)O[C@@H]2[C@H]1c2c(cc3c(c2OC)OCO3)CCN1C [Noscapine, noscapine, reference compound] | − | Trace | +++ | ++ | No N-alkylated alkaloid product compounds were detected
3 | COc1ccc(C[C@H]2c3cc(O)c(OC)cc3CCN2C)cc1O [S-Reticuline, reticuline] | + | + | ++ | +++ | 
4 | COc1cc2c(cc1OC)CNCC2 [THQ2, 6,7-dimethoxy-1,2,3,4-tetrahydroisoquinoline] | +++ | +++ | + | + | 
5 | COc1cc2c(cc1O)C(Cc1ccc(O)cc1)NCC2 (stereo not shown) [Coclaurine, coclaurine] | + | +++ | + | ++ | 
6 | NCCc1ccccc1 [2-Phenylethaneamine, 2-phenylethan-1-amine] | + | Trace | Trace | − | 
7 | CC(N)Cc1ccccc1 (stereo not shown) [Amphetamine, amphetamine, reference compound] | + | Trace | Trace | − | 
8 | CC(N)C(O)c1ccccc1 (stereo not shown) [Norephedrine, norephedrine] | + | − | − | − | 
9 | NC(=O)c1cccnc1 [Nicotinamide, nicotinamide] | − | − | − | − | No N-alkylated alkaloid product compounds were detected
10 | COc1ccc2c3c([nH]c2c1)C(C)=NCC3 [Harmaline, harmaline] | + | + | − | − | 
11 | CC(C)NC[C@H](O)COc1cccc2ccccc12 (racemic) [Propanolol, propanolol, reference compound] | + | ++ | +++ | +++ | 
12 | COc1ccc2c(c1)[nH]c1c(C)nccc12 [Harmine, harmine] | − | ++ | − | − | No N-alkylated alkaloid product compounds were detected
13 | COc1cc(CCN)cc(OC)c1OC [Mescaline, mescaline] | + | − | − | − | 
